Assay results taken from ChEMBL document CHEMBL3046389, “Synthesis and biological evaluation of novel hydroquinone dimethyl ethers as potential anticancer and antimicrobial agents” (2013).
Converted amounts (≈) assume the structure as drawn.

What was measured:
Format in all cases: functional
RPMI-8226 = assay: Anticancer activity against Homo sapiens (human) RPMI8226 cells after 48 hr by SRB assay; settings: RPMI-8226, 48 h
SF-268 = assay: Anticancer activity against Homo sapiens (human) SF268 cells after 48 hr by SRB assay; settings: SF-268, 48 h
COLO 205 = assay: Anticancer activity against Homo sapiens (human) COLO205 cells after 48 hr by SRB assay; settings: COLO 205, 48 h
MDA-MB-468 = assay: Anticancer activity against Homo sapiens (human) MDA-MB-468 cells after 48 hr by SRB assay; settings: MDA-MB-468, 48 h
OVCAR-3 [1] = assay: Anticancer activity against Homo sapiens (human) OVCAR3 cells after 48 hr by SRB assay; settings: OVCAR-3, 48 h
SN12C = assay: Growth inhibition of Homo sapiens (human) SN12C cells at 10 uM after 48 hr by SRB assay; settings: read-out: GI
HL-60(TB) = assay: Anticancer activity against Homo sapiens (human) HL-60(TB) cells after 48 hr by SRB assay; settings: HL-60, 48 h
Pseudomonas aeruginosa = assay: Antimicrobial activity against Pseudomonas aeruginosa ATCC 10145 after 48 hr by two-fold serial broth dilution method; settings: ATCC 10145, 48 h
A549 = assay: Growth inhibition of Homo sapiens (human) A549/ATCC cells at 10 uM after 48 hr by SRB assay; settings: A549, 48 h, read-out: GI
KM12 = assay: Growth inhibition of Homo sapiens (human) KM12 cells at 10 uM after 48 hr by SRB assay; settings: KM12, 48 h, read-out: GI
Hs-578T = assay: Anticancer activity against Homo sapiens (human) Hs 578T cells after 48 hr by SRB assay
RXF 393 [2] = assay: Growth inhibition of Homo sapiens (human) RXF393 cells at 10 uM after 48 hr by SRB assay; settings: RXF 393, 48 h, read-out: GI
TK-10 = assay: Anticancer activity against Homo sapiens (human) TK10 cells after 48 hr by SRB assay; settings: TK-10, 48 h
CCRF-CEM [3] = assay: Growth inhibition of Homo sapiens (human) CCRF-CEM cells at 10 uM after 48 hr by SRB assay; settings: read-out: GI
MCF7 = assay: Growth inhibition of Homo sapiens (human) MCF7 cells at 10 uM after 48 hr by SRB assay; settings: MCF7, 48 h, read-out: GI
SF-295 = assay: Growth inhibition of Homo sapiens (human) SF295 cells at 10 uM after 48 hr by SRB assay; settings: SF-295, 48 h, read-out: GI
U-251 = assay: Anticancer activity against Homo sapiens (human) U251 cells after 48 hr by SRB assay; settings: U-251, 48 h
IGROV-1 = assay: Anticancer activity against Homo sapiens (human) IGROV1 cells after 48 hr by SRB assay; settings: IGROV-1, 48 h
Bacillus subtilis = assay: Antimicrobial activity against Bacillus subtilis ATCC 6633 after 48 hr by two-fold serial broth dilution method; settings: ATCC 6633, 48 h
M14 = assay: Growth inhibition of Homo sapiens (human) M14 cells at 10 uM after 48 hr by SRB assay; settings: M14, 48 h, read-out: GI
K562 = assay: Anticancer activity against Homo sapiens (human) K562 cells after 48 hr by SRB assay; settings: K562, 48 h
MDA-MB-435 = assay: Growth inhibition of Homo sapiens (human) MDA-MB-435 cells at 10 uM after 48 hr by SRB assay; settings: MDA-MB-435, 48 h, read-out: GI
SNB-75 = assay: Anticancer activity against Homo sapiens (human) SNB75 cells after 48 hr by SRB assay; settings: SNB-75, 48 h
NCI-H460 = assay: Growth inhibition of Homo sapiens (human) NCI-H460 cells at 10 uM after 48 hr by SRB assay; settings: NCI-H460, 48 h, read-out: GI
SW-620 = assay: Growth inhibition of Homo sapiens (human) SW620 cells at 10 uM after 48 hr by SRB assay; settings: SW-620, 48 h, read-out: GI
PC-3 = assay: Growth inhibition of Homo sapiens (human) PC3 cells at 10 uM after 48 hr by SRB assay; settings: PC-3, 48 h, read-out: GI
HT-29 = assay: Growth inhibition of Homo sapiens (human) HT-29 cells at 10 uM after 48 hr by SRB assay; settings: HT-29, 48 h, read-out: GI
RXF 393 [4] = assay: Anticancer activity against Homo sapiens (human) RXF393 cells after 48 hr by SRB assay; settings: RXF 393, 48 h
OVCAR-3 [5] = assay: Growth inhibition of Homo sapiens (human) OVCAR3 cells at 10 uM after 48 hr by SRB assay; settings: OVCAR-3, 48 h, read-out: GI
CCRF-CEM [6] = assay: Anticancer activity against Homo sapiens (human) CCRF-CEM cells after 48 hr by SRB assay
DU-145 = assay: Anticancer activity against Homo sapiens (human) DU145 cells after 48 hr by SRB assay; settings: DU-145, 48 h
SF-539 = assay: Anticancer activity against Homo sapiens (human) SF539 cells after 48 hr by SRB assay; settings: SF-539, 48 h
Escherichia coli = assay: Antimicrobial activity against Escherichia coli ATCC 11775 after 48 hr by two-fold serial broth dilution method; settings: ATCC 11775, 48 h
[7] = read-out: LC50 (the source's name)

COc1ccc(OC)c(/C=C/c2nnc(S)n2-c2ccc(Cl)cc2)c1
GI50 (RPMI-8226): 5.22 µM | TGI (RPMI-8226): > 100 µM | CC50 (RPMI-8226; [7]): > 100 µM | GI50 (SF-268): 17.5 µM | TGI (SF-268): > 100 µM | CC50 (SF-268; [7]): > 100 µM | GI50 (COLO 205): 12.4 µM | TGI (COLO 205): 68.4 µM | CC50 (COLO 205; [7]): > 100 µM | GI50 (MDA-MB-468): 3.51 µM | TGI (MDA-MB-468): 55.4 µM | CC50 (MDA-MB-468; [7]): > 100 µM | GI50 (OVCAR-3 [1]): 3.34 µM | LC50 (OVCAR-3 [1]): > 100 µM | TGI (OVCAR-3 [1]): 21.4 µM | inhibition of growth at 10 µM (SN12C): 33.8% | GI50 (HL-60(TB)): 3.57 µM | TGI (HL-60(TB)): > 100 µM | CC50 (HL-60(TB); [7]): > 100 µM | MBC (Pseudomonas aeruginosa): 100 µg/mL (≈ 267 µM) | MIC (Pseudomonas aeruginosa): 50 µg/mL (≈ 134 µM) | inhibition of growth at 10 µM (A549): 33.7% | inhibition of growth at 10 µM (KM12): 59.1% | GI50 (Hs-578T): 3.1 µM | TGI (Hs-578T): > 100 µM | CC50 (Hs-578T; [7]): > 100 µM | inhibition of growth at 10 µM (RXF 393 [2]): 48.1% | GI50 (TK-10): 25.8 µM | TGI (TK-10): > 100 µM | CC50 (TK-10; [7]): > 100 µM | inhibition of growth at 10 µM (CCRF-CEM [3]): 39.4% | inhibition of growth at 10 µM (MCF7): 68% | inhibition of growth at 10 µM (SF-295): 68.8% | GI50 (U-251): 6.88 µM | TGI (U-251): > 100 µM | CC50 (U-251; [7]): > 100 µM | GI50 (IGROV-1): 4.38 µM | LC50 (50% lethal concentration) (IGROV-1): > 100 µM | TGI (IGROV-1): > 100 µM | MBC (Bacillus subtilis): 100 µg/mL (≈ 267 µM) | MIC (Bacillus subtilis): 100 µg/mL (≈ 267 µM) | inhibition of growth at 10 µM (M14): 69% | GI50 (K562): 4.95 µM | TGI (K562): > 100 µM | CC50 (K562; [7]): > 100 µM | inhibition of growth at 10 µM (MDA-MB-435): 110% | GI50 (SNB-75): 2.85 µM | TGI (SNB-75): > 100 µM | CC50 (SNB-75; [7]): > 100 µM | inhibition of growth at 10 µM (NCI-H460): 61.1% | inhibition of growth at 10 µM (SW-620): 49.6% | inhibition of growth at 10 µM (PC-3): 41.4% | inhibition of growth at 10 µM (HT-29): 34.6% | GI50 (RXF 393 [4]): 3.38 µM | LC50 (RXF 393 [4]): > 100 µM | TGI (RXF 393 [4]): 38.7 µM | inhibition of growth at 10 µM (OVCAR-3 [5]): 70.6% | GI50 (CCRF-CEM [6]): 4.77 µM | TGI (CCRF-CEM [6]): > 100 µM | CC50 (CCRF-CEM [6]; [7]): > 100 µM | GI50 (DU-145): 19.1 µM | TGI (DU-145): > 100 µM | CC50 (DU-145; [7]): > 100 µM | GI50 (SF-539): 4.05 µM | TGI (SF-539): 97.9 µM | CC50 (SF-539; [7]): > 100 µM | MBC (Escherichia coli): 50 µg/mL (≈ 134 µM) | MIC (Escherichia coli): 50 µg/mL (≈ 134 µM)
